Test results reported in ChEMBL document CHEMBL1201862, “PubChem BioAssay data set” (2004).
Active and inactive are the calls of the source.

How the values were obtained:
[1] = biological target: T1, Sentrin-specific protease 7 (Homo sapiens, UniProt Q9BQF6); assay: SENP7 protease inhibitors, SAR follow-up, biochemical, luminescence (AID 504497); assay type: functional
T1 sequence (Q9BQF6 whole entry): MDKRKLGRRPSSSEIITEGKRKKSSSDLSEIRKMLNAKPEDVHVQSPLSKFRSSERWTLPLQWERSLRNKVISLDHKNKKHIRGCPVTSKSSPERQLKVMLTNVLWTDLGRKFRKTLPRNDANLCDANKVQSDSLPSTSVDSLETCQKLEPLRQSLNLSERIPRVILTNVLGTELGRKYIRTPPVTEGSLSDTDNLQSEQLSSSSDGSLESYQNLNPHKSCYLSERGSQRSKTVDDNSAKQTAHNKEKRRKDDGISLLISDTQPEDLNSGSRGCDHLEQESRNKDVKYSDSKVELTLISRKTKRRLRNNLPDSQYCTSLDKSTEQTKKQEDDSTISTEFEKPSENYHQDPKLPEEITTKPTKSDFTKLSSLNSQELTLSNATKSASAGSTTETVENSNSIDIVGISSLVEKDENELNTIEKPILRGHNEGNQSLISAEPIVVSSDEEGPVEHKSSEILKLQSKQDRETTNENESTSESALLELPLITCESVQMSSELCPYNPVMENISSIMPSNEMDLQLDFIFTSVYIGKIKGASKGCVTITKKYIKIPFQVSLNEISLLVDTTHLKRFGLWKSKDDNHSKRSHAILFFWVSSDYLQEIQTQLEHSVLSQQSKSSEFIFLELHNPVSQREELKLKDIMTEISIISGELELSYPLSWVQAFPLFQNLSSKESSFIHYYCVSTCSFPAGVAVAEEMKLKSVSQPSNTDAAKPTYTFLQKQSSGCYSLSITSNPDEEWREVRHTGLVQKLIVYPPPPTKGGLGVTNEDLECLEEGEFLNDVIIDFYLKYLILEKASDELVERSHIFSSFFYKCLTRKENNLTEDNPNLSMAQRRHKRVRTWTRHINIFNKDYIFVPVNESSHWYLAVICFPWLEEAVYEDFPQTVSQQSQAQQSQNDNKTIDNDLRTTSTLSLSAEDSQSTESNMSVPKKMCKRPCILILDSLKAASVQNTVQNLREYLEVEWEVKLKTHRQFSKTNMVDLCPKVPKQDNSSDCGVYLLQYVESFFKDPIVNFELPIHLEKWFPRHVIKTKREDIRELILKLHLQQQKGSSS

Caspase-3 = biological target: T2, Caspase-3 (Homo sapiens, UniProt P42574); assay: SAR Analysis of small molecule inhibitors of Sentrin-specific proteases (SENPs) using a Caspase-3 Selectivity assay. [Related pubchem assays (depositor defined):AID2540, AID2599, AID434973, AID489001]; assay type: functional
T2 sequence (P42574 whole entry): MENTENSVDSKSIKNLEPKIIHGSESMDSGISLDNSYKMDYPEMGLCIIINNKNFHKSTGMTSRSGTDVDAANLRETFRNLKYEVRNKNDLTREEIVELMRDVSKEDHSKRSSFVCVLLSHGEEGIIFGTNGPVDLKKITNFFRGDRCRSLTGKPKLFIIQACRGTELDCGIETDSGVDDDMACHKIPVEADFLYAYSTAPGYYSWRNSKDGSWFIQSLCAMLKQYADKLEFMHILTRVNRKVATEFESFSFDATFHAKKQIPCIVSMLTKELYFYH

[2] = biological target: T3, Sentrin-specific protease 8 (Homo sapiens, UniProt Q96LD8); assay: SENP8 protease inhibitors, SAR follow-up, biochemical, luminescence (AID 504501); assay type: functional
T3 sequence (Q96LD8 whole entry): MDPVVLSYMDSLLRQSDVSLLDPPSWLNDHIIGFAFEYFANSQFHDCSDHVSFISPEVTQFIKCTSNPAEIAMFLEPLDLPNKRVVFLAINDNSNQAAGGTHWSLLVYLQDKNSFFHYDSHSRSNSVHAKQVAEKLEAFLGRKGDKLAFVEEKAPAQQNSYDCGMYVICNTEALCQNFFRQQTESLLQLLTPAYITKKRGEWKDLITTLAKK

[3] = biological target: T4, Sentrin-specific protease 6 (Homo sapiens, UniProt Q9GZR1); assay: SAR Analysis of small molecule inhibitors of Sentrin-specific protease 6 (SENP6) using a Luminescent assay. [Related pubchem assays (depositor defined):AID2582, AID2599]; assay type: functional
T4 sequence (Q9GZR1 whole entry): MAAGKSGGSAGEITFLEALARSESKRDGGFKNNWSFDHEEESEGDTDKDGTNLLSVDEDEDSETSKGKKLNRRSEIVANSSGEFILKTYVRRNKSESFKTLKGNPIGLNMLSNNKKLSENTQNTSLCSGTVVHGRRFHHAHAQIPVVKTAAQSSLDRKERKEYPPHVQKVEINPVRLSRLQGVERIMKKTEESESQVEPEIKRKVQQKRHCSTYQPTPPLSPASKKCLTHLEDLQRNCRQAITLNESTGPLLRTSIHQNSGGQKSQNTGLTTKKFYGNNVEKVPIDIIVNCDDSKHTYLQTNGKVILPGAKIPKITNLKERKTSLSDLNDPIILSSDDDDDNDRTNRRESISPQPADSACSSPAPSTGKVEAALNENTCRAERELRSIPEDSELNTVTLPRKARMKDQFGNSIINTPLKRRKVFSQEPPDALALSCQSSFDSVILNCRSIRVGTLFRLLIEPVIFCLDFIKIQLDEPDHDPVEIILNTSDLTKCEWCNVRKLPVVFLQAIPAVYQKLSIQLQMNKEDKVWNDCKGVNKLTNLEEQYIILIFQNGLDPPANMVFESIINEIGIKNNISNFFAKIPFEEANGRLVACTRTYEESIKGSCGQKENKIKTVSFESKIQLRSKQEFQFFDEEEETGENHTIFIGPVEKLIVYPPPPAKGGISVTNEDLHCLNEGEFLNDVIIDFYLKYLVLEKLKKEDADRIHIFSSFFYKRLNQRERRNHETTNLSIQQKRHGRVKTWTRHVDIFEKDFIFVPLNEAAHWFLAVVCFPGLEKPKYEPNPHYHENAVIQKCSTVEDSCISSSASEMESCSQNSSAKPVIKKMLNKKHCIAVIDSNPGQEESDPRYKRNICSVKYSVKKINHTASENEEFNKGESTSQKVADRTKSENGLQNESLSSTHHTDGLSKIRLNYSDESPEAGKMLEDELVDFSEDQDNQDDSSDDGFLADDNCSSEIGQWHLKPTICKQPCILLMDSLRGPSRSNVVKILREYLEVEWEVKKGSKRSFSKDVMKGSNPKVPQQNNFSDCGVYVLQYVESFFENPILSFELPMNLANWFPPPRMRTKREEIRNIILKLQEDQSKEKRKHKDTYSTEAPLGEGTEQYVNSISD

[4] = inhibitors of HIV Env-driven cell fusion, dose response, cherry-pick (AID 652057); assay type: functional, cell-based
[5] = Vero E6 cell cytotoxicity, dose response, cytotoxicity control for non-replicating M. tuberculosis project, secondary assay (AID 492998); assay type: functional, VeroE6; details: Vero C1008
Bcl-2-related protein A1 = biological target: T5, Bcl-2-related protein A1 (Mus musculus, UniProt Q07440); assay type: functional;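 note: confirmatory dose–response counterscreen on Bfl-1, used to check hits from a UBC13 polyubiquitin inhibitor campaign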
T5 sequence (Q07440 whole entry): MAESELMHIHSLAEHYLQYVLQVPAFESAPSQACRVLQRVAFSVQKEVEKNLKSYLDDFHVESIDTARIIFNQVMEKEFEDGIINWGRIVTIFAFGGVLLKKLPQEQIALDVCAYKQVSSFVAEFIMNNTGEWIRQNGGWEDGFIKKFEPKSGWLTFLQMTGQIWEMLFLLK

[6] = inhibitors of clade B AD8 Env fusion, dose response, cell-based, cherry-pick (AID 652062); assay type: functional;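 note: luciferase signal from cell-cell fusion driven by HIV-1 clade B AD8 Env; potency is for inhibitors of fusion seen as a drop in luminescence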
CHO = assay: cytotoxicity in TLR9-MyD88 CHO cells, dose response, cytotoxicity control for TLR9-MyD88 binding inhibitor project, cell-based, luminescence (AID 588339); assay type: functional, hamster; details: Cricetulus griseus;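 note: CHO cells stably coexpressing TLR9 and MyD88 fusions from primary screen; compound exposure lasted 48 hours before viability readout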
[7] = biological target: Aryl hydrocarbon receptor (Homo sapiens, UniProt P35869); assay: Luminescence-based cell-based high throughput dose response assay for activators of the Aryl Hydrocarbon Receptor (AHR). [Related pubchem assays: 2796 (Primary screen (AHR activators in singlicate)), 2845 (Confirmation screen (AHR activators in triplicate)), 434939 (Counterscreen (PXR activators in triplicate)), 2804 (Summary (AHR activators))]; assay type: ADME
Chain of Aryl hydrocarbon receptor (P35869 whole entry): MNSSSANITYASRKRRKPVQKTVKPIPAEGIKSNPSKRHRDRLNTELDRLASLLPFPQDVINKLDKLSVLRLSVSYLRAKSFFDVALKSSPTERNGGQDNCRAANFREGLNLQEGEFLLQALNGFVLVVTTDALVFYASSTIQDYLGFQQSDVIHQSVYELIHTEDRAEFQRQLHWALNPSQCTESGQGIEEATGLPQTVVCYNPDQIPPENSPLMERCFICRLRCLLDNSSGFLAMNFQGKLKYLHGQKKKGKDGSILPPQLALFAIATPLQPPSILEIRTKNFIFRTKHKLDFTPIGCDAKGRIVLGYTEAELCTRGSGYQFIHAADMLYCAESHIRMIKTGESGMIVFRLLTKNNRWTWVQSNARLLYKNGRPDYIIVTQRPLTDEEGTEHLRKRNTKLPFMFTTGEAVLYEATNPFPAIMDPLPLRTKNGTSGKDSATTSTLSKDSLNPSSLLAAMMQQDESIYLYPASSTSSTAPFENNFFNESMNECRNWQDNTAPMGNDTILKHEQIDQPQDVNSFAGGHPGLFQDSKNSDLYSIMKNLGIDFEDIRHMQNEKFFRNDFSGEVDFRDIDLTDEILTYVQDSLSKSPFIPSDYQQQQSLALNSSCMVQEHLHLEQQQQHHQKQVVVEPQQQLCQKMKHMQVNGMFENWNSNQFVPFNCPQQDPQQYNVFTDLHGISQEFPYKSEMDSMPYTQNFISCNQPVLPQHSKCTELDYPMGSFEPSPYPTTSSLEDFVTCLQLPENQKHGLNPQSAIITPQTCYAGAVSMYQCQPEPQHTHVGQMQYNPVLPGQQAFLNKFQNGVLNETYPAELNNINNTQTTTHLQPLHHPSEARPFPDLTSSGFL

[8] = biological target: T6, Ubiquitin-conjugating enzyme E2 N (Homo sapiens, UniProt P61088); assay type: functional
T6 sequence (P61088 whole entry): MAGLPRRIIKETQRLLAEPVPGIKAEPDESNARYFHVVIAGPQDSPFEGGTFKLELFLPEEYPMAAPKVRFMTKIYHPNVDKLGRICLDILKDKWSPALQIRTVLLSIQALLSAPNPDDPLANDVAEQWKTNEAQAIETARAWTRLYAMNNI

[9] = HepG2 cell cytotoxicity, dose response, cytotoxicity control for non-replicating M. tuberculosis project (AID 489018); assay type: functional; details: Mycobacterium tuberculosis
[10] = Luminescence Cell-Based Dose Response HTS to Identify Inhibitors of 5'UTR Stem-Loop Driven Prion Protein mRNA Translation in H4 Neuroglioblastoma Cells. [Related pubchem assays: 1827 (Project Summary), 1813 (Primary HTS)]; assay type: functional
[11] = cytotoxicity in HEK-293T cells, dose response, cytotoxicity control for TCR NF-kB inhibitor project, luminescence, T-cell screen hits (AID 489026); assay type: functional, cell-based;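 note: cells exposed to compound about 14 hours before the viability readout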
[12] = inhibitors of firefly luciferase expression or activity, dose response, H4 neuroglioma cells, luminescence (AID 1990); assay type: functional, cell-based
BJ [13] = assay: cytotoxicity toward BJ-TERT-LT-ST fibroblasts, dose response, cell-based, RAS-independent, luminescence (AID 1935); assay type: functional; details: Homo sapiens;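 note: BJ fibroblasts immortalized with TERT plus LT and ST oncogenes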
Beta Lactamase = Beta Lactamase (Pseudomonas aeruginosa, UniProt Q932Y6); assay: beta-lactamase reporter inhibitor potency, dose response, artefact control for TLR9-MyD88 binding inhibitor project, BLA reporter cells, FRET fluorescence (AID 588341); assay type: cell-based;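 note: cell based assay in CHO-K1 cells stably expressing beta-lactamase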
Chain of Beta Lactamase (Q932Y6 whole entry): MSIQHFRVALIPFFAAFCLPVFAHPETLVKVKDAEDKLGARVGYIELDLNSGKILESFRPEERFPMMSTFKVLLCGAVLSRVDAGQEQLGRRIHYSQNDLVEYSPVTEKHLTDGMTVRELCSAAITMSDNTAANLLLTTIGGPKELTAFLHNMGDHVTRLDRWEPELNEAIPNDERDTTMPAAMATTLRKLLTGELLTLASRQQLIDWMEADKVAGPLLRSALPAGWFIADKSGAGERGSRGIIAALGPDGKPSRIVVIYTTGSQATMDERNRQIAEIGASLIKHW

BJ [14] = assay: cytotoxicity toward BJ-TERT fibroblasts, dose response, cell-based, RAS-independent, luminescence (AID 1933); assay type: functional; details: Homo sapiens
[15] = ZM109 Env clade C HIV-1 fusion inhibitors, dose response, HeLa effector, CEM target cells, luciferase, cherry-pick (AID 652058); assay type: functional, cell-based
[16] = THP-1 cell cytotoxicity, dose response, cytotoxicity control for non-replicating M. tuberculosis project (AID 489025); assay type: functional
[17] = biological target: T7, Mitochondrial peptide methionine sulfoxide reductase (Bos taurus, UniProt P54149); assay type: functional;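 note: absorbance read-out, biochemical high-throughput dose-response screen for MsrA inhibitors, confirmatory; recombinant bovine MsrA coupled to E. coli TrxB with NADPH and selenocystamine; potency is for inhibitors of MsrA activity on DMSO substrate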
T7 sequence (P54149 whole entry): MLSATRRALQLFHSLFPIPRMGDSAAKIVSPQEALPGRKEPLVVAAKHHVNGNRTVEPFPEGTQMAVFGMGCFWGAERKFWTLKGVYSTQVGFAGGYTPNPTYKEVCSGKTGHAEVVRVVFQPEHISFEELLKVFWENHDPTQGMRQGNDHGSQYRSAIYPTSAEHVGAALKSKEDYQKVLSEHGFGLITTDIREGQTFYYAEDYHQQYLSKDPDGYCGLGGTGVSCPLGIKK

[18] = inhibitors of SNCA 5'UTR-driven reporter translation, confirmation, H4 neuroglioma cells, luminescence (AID 1988); assay type: functional, cell-based
cells = assay type: functional
BJ [19] = assay: cells; assay type: functional, cell-based; details: Homo sapiens
[20] = off-target signal loss in HeLa-CEM21 co-culture – HeLa F-luc CTL cells, cherry-picked, counter-screen for HIV-1 Env fusion inhibitor project, dose response (AID 652040); assay type: functional, cell-based;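 note: potency for signal decrease marking cytotoxic or nonspecific inhibition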
[21] = cytotoxicity toward DRD oncogenic fibroblasts, dose response, cell-based, non-viral oncogenic, luminescence (AID 1934); assay type: functional; details: Homo sapiens
INS1 = assay: beta cell apoptosis inhibitors, cytokine rescue, dose response, luminescence, retest (AID 449756); assay type: functional, cell-based; details: Rattus norvegicus;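 note: cell death triggered by IL-1 beta plus TNF-alpha plus IFN-gamma mixture; protective hits raise ATP signal compared with cytokine alone wells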
[22] = CEM21 lymphoblast cell cytotoxicity, dose response, cytotoxicity control for viral fusion inhibitor project, CellTiter-Glo luminescence, cherry-picked (AID 652042); assay type: functional, cell-based;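 note: potency for signal decrease meaning cytotoxicity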
BJ [23] = assay: cytotoxicity toward Ras-transformed BJeLR fibroblasts, dose response, cell-based, alamar blue fluorescence, cherrypicked samples (AID 2631); assay type: functional; details: Homo sapiens;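 note: confirmatory dose-response assay in RAS-dependent BJ fibroblasts engineered with TERT, LT and ST, with cytotoxicity read by fluorescence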
[24] = biological target: T6, Ubiquitin-conjugating enzyme E2 N; assay type: functional; remark: listed apart in the source

CCC(=O)c1ccc(OCC(=O)N(c2ccccc2)c2nc(-c3ccccc3)ns2)cc1
IC50 [1]: 32 µM (active)
IC50 (Caspase-3): > 99 µM (inactive)
IC50 [2]: 96.7 µM (active)
IC50 [3]: 65.1 µM (active)

COc1ccc2nc(C)cc(N/N=C/c3ccc(F)cc3)c2c1
AC50 [4]: 8.26 µM (active)
CC50 [5]: 570 nM (active)
IC50 (Bcl-2-related protein A1): 17 µM (active)
AC50 [6]: 14.7 µM (active)
IC50 (CHO): 6.2 µM (active)
EC50 [7]: > 377 nM (active)
IC50 [8]: 10.1 µM (active)
CC50 [9]: 15.2 µM (active)
EC50 [10]: > 120 µM (not active)
IC50 [11]: > 80 µM (inactive)
EC50 [12]: 8.44 µM (active)
EC50 (BJ [13]): 2.66 µM (inconclusive)
IC50 (Beta Lactamase): 2.13 µM (active)
EC50 (BJ [14]): 1.24 µM (inconclusive)
AC50 [15]: 8.14 µM (active)
CC50 [16]: 1.66 µM (active)
IC50 [17]: 12.8 µM (inactive)
EC50 [18]: 9.29 µM (active)
IC50 (cells): 3.12 µM (active)
EC50 (BJ [19]): 5.09 µM (inconclusive)
AC50 [20]: 6.09 µM (active)
EC50 [21]: 4.92 µM (active)
AC50 (INS1): 6.46 µM (active)
AC50 [22]: 2.65 µM (active)
EC50 (BJ [23]): 317 nM (active)
IC50 [24]: 11.8 µM (active)
